According to patent US20260158140A1, “METHODS AND MATERIALS FOR IMPROVING T CELL THERAPIES” (Mayo Foundation for Medical Education and Research, priority 2021, published 2026):
Entries after “also recorded” stand apart in the source; their conditions may differ.

Experiments:
CART19 cells [1] = assay: CART19 proliferation: co-culture with irradiated JeKo-1, absolute CD3+ T cell counts by flow cytometry; type: cell-based, human; conditions: 1 μM
Method: FIGS. 11A-11B. Proliferation. […] CART19 and irradiated JeKo-1 were co-cultured at 1:1 ratio for 24 hours in the presence of DMSO or vecabrutinib (1 μM or 10 μM) or ibrutinib (1 μM or 10 μM). Absolute CD3^+T cell counts were assessed by flow cytometry (*p<0.05, ****p<0.0001, two-way ANOVA). FIG. 11B) To further verify effect of BTK inhibition on CART19 proliferation, using different set of donors for CAR T cell production, CART19 and irradiated JeKo-1 were co-cultured at 1:1 ratio for 24 hours in the presence of DMSO or vecabrutinib (10 μM) or ibrutinib (10 μM).
For proliferation assays, CART19 cells were cultured with irradiated CD19^+ cell line Jeko-1 at a 1:1 ratio for 24 hours. Then, the cells were harvested and washed with flow buffer, following by surface staining with anti-hCD3 (eBioscience, San Diego, CA, USA) and LIVE/DEAD™ Fixable Aqua Dead Cell Stain Kit (Invitrogen, Carlsbad, CA, USA). […] Absolute quantification was obtained using volumetric measurement or CountBright absolute counting beads (Invitrogen, Carlsbad, CA, USA). […]
Next, the effect of vecabrutinib on CART19 proliferation was assessed. CART19 cells were cocultured with irradiated JeKo-1 cells for 24 hours in the presence of vecabrutinib (1 μM or 10 μM), and the absolute count of CART19 was measured by flow cytometry and used as a surrogate for proliferation. […]

[2] = tested on: CD19+ Mantle cell lymphoma cell line, Jeko-1; assay: CART19 cytotoxicity: co-culture of CART19 or UTD T cells with JeKo-1, percent killing; type: cell-based, human
Method: FIGS. 1A-1C. […] CART19 and live JeKo-1 were co-cultured at 1:1 ratio for 24 hours in the presence of DMSO or vecabrutinib (1 μM or 10 μM). The percentage of killing were assessed relative to control (****p<0.0001, two-way ANOVA). […] CART19 and irradiated JeKo-1 were co-cultured at 1:1 ratio for 24 hours in the presence of DMSO or vecabrutinib (1 μM or 10 μM). Absolute CD3^+ T cell counts were assessed by flow cytometry (**p<0.01, two-way ANOVA) . […] JeKo-1 target cells were incubated with CART19 at a 5:1 ratio with monensin, hCD49d, and hCD28 in the presence of vecabrutinib at the indicated concentrations for 4 hours. Cells were then analyzed using intracellular flow cytometric assessment of CD107a as a marker for degranulation.
FIG. 10. CART19 cytotoxicity in the presence of Vecabrutinib versus the irreversible BTK inhibitor, Ibrutinib. CART19 or control cells (UTD) were cocultured at different effector-to-target ratio (E:T) with Jeko-1 cell line with vecabrutinib at 1 μM or 10 μM, or ibrutinib at 1 μM. At 24 hours, live Jeko cells numbers was measured by flow cytometry and percent killing was calculated relative to control (*p<0.05, **p<0.01, two-way ANOVA).
To investigate CAR T-specific cytotoxicity, CART19 cells or control UTD T cells were co-cultured with the CD19^+ Mantle cell lymphoma cell line, Jeko-1, at 1:1 ratio and treated with vehicle (DMSO) or vecabrutinib at 1 μM or 10 μM for 24 hours (FIG. 1A).
Measurement of CART19 killing of JeKo-1 cells at different effector to target ratios. […] Results were normalized to target cells incubated with the respective concentration of the BTK inhibitor alone (with no CART19) to eliminate the direct cytotoxic effect of the inhibitor on lymphoma cells without CART19. 10 μM of ibrutinib was not included as it caused 100% killing of CART19 cells and Jeko-1 cells (FIGS. 11A and 11B).

luciferase+JeKo-1 cells = assay: JeKo-1 xenograft model with CART19 plus oral vecabrutinib; type: in vivo; conditions: CART19 + vecabrutinib 50 mg/kg BID vs CART19 + vehicle, weekly weighing (FIG. 4C)
Method: FIGS. 4A-4C. Reversible BTK inhibition in vivo enhances CAR T cell antitumor activity in xenograft models. […] On day-14, NSG mice were injected with 1×10^6 luciferase+JeKo-1 cells intravenously. Gavage began on day −1 with vecabrutinib 50 mg/kg BID or vehicle. Untransduced T cells (UTD) or CART19 were infused on day 0. Mice were imaged weekly to assess the tumor burden. p/s=photons/seconds. […] Mice were bled weekly to measure CART19 by flow cytometry (*p<0.05, one-way ANOVA). FIG. 4C) Vecabrutinib decreases CRS. Mouse weight and wellbeing along with elevation of human cytokines represent a surrogate for the development of CRS intensity in mice receiving CART19. […]
6-8 week old, non-obese diabetic/severe combined immunodeficient female mice bearing a targeted mutation in the interleukin (IL)-2 receptor gamma chain gene (NSG) were obtained from Jackson Laboratories (Jackson Laboratories, Bar Harbor, ME, USA). […] Mice were weighed weekly, and measurements were recorded in grams. Tumor burden was measured weakly by imaging mice with a bioluminescent imager using an IVIS® Lumina S5 Imaging System (PerkinElmer, Hopkinton, MA, USA), and measurements were recorded in total flux (p/s). […] Absolute quantification was obtained using volumetric measurement or CountBright absolute counting beads (Invitrogen, Carlsbad, CA, USA). […]

CART19 cells [3] = assay: RNA-Seq of CART19 cells stimulated with irradiated JeKo-1 (differential expression, Ingenuity Pathway Analysis); type: cell-based, human; conditions: 10 μM vs vehicle
Method: CART19 and irradiated Jeko-1 cells were co-cultured at a 1:1 ration for 72 hours with DMSO or 10 μM Vecabrutinib. Three biological replicates of stimulated and unstimulated CART19 cells were included.
RNA was isolated using miRNeasy Micro kit (Qiagen, Gaithersburg, MD, USA) and treated with RNase-Free DNase Set (Qiagen, Gaithersburg, MD, USA). Total RNA was prepped with a SMARTer stranded total RNA-seq kit v2, Pico input mammalian (Takara, Mountain View, CA, USA). Total RNA (three samples per lane) was sequenced on an Illumina HiSeq 4000 (Illumina, San Diego, CA, USA). Library preparation and sequencing were performed by the Medical Genome Facility Genome, Analysis Core (Mayo Clinic, Rochester, MN, USA). Fastq files were viewed in FastQC v0.11.8 to check for quality. Adaptor sequences were removed using Cutadapt v1.18.46. Output files were re-checked for quality and adaptor removal using FastQC v0.11.8. The latest human (GRCh38) reference genomes were downloaded from NCBI. Genome index files were generated using STAR, and the paired end reads were mapped to the genome for each condition. HTSeq was used to generate expression counts for each gene, and DeSeq2 was used to calculate differential expression using adjusted p values <0.05. Heatmap was created using pheatmap (cran.r-project.org/web/packages/pheatmap/index.html). Networks were generated using Ingenuity Pathway Analysis v49932394 (QIAGEN, qiagenbioinformatics.com/products/ingenuity-pathway-analysis). Gene set enrichment analyses were performed using Enrichr (maayanlab.cloud/Enrichr/).
• Biological Replicates: C267, C278, C296 where CART19 cells were generated • Conditions: • Vehicle • 1 μM vecabrutinib • 10 μM vecabrutinib • Activated for 72 hours with Irradiated JeKo-1 (1:1 E:T Ratio) • mRNA was extracted from CART19 cells • RNA sequencing was performed
• FastQC (initial quality check) • Trimmomatic (trim adapters and overrepresented sequences) • FastQC (to confirm removal of the above) • STAR (align to the latest human genome annotation, GRCh38.p13) • HTSeq (obtain counts for each gene) • DESeq2 • Normalized counts across samples • Calculated differential expression between groups • Multiple hypothesis correction (Benjamini-Hochberg procedure)

| SMILES | CART19 proliferation (absolute CD3+ T cell count) (CART19 cells [1]; irradiated JeKo-1 1:1, 24 hours (FIG. 11A)) | killing of CART19 cells and Jeko-1 cells ([2]; 10 μM) [%] | CART19-mediated killing of Jeko-1 lymphoma cells ([2]; different E:T ratios, 24 hours, vecabrutinib 1 μM or 10 μM, ibrutinib 1 μM, normalized to target cells with inhibitor alone (FIG. 10)) | CART19 antigen specific proliferation (absolute CD3+ T cell count) (CART19 cells [1]; irradiated JeKo-1 1:1, 24 hours (FIG. 1B)) | body weight change from day 0 (surrogate for CRS) (luciferase+JeKo-1 cells) | CART19-mediated killing of tumor cells (tumor specific cytotoxicity), percentage of killing relative to control ([2]; CART19:JeKo-1 1:1, 24 hours, 1 μM or 10 μM vs DMSO (FIG. 1A)) | PI3K/AKT signaling z-score (Ingenuity Pathway Analysis) (CART19 cells [3]; 72 hours (FIG. 5F, FIG. 9)) | IL-8 signaling pathway z-score (Ingenuity Pathway Analysis) (CART19 cells [3]; 72 hours (FIG. 9)) | PDGF signaling z-score (Ingenuity Pathway Analysis) (CART19 cells [3]; 72 hours (FIG. 9)) | PTEN signaling pathway Z-score (Ingenuity Pathway Analysis) (CART19 cells [3]; 72 hours (FIG. 9)) | STAT 3 pathway z-score (Ingenuity Pathway Analysis) (CART19 cells [3]; 72 hours (FIG. 9)) | TH1 pathway Z-score (Ingenuity Pathway Analysis) (CART19 cells [3]; 72 hours (FIG. 9)) |
| --- | --- | --- | --- | --- | --- | --- | --- | --- | --- | --- | --- | --- |
| C=CC(=O)N1CCC[C@@H](n2nc(-c3ccc(Oc4ccccc4)cc3)c3c(N)ncnc32)C1 [ibrutinib] | no effect | 100 | no effect | – | – | – | – | – | – | – | – | – |
| NC(=O)[C@H]1CCN(c2ncnc(N)c2F)C[C@@H]1N1CCC[C@@H](Nc2cc(Cl)cc(C(F)(F)F)c2)C1=O [vecabrutinib] | – | – | – | no significant effect | decreases CRS; also recorded: better maintained their body weight | increases CART19-mediated killing of tumor cells; also recorded: dose-dependent increase | 0.707 | −1.941 | −1.667 | 0.333 | −3.051 | 0.816 |
